pIC50: −log10 of the molar value.
Legend:
[1] = system: Chinese hamster ovary (CHO) cells; assay: Protein translation assay (puromycin labelling, western blot); assay type: cell-based; settings: 2 hours, media alone = 100%; for activity at 1 µM: Cricetulus griseus, unstressed CHO cells (without Tg), 1 μM test compound, read-out: % Protein synthesis relative to untreated (1 μM test compound); for % Recovery of protein synthesis (1 μM test compound): stressed CHO cells, 300 nM Tg, Tg alone = 0%
Description: Chinese hamster ovary (CHO) cells were maintained at 37° C. and 5% C02 in Dulbecco's Modified Eagle's Media (DMEM) supplemented with 10% fetal bovine serum, 2 mM L-glutamine, 100 U/ml penicillin, and 100 μg/ml streptomycin. After reaching 80% of confluence, cells were detached and seeded on 6 well plates in complete media, allowed to recover overnight and treated for 2 hours with 1 μM of the test compound (to assess protein synthesis levels in unstressed condition), or for 2 hours with 300 nM Tg in the presence of 1 μM of the test compound (to assess the recovery of protein synthesis in a stressed condition). Cells with Tg alone were used as controls.
After the 2 hours treatments, media were replaced by adding 10 μg/ml puromycin (Sigma Aldrich # P8833) in complete media for 30 min. Media were removed and cells were lysed with SDS-PAGE lysis buffer. Lysates were transferred to 1.5 ml tubes and sonicated for 3 min and total protein amount were quantified using BCA Protein Assay Kit (Pierce). Equal amount of protein (30 μg) was loaded on SDS-PAGE gels. Proteins were transferred onto 0.2 μm PVDF membranes (BioRad) and probed with primary antibodies diluted in Tris-buffered saline supplemented with 0.1% Tween 20 (Merck # S6996184 505) and 3% bovine serum albumin (Rockland # BSA-50).
Puromycin (12D10) (Merck # MABE343) and β-actin (Sigma Aldrich # A5441) antibodies were used as primary antibody. A HRP-conjugated secondary antibody (Rockland) was employed to detect immune-reactive bands using enhanced chemiluminescence (ECL Western Blotting Substrate, Pierce). Quantification of protein bands was done by densitometry using ImageJ software.
Percent increase of protein synthesis in unstressed cells (without Tg treatment) in the presence of media alone or certain test compounds is shown in Table 3. The percentage levels were normalized to the media alone condition, which correspond to 100% protein synthesis.
Percent recovery of protein synthesis in stressed cells (with Tg treatment) due to the test compounds at 1 μM is also shown in Table 3. The levels were normalized to the media alone and Tg alone conditions, which correspond to 100% and 0% respectively.

ATF4 = ATF4 expression inhibition assay (ATF4 luciferase reporter); assay type: cell-based; settings: Homo sapiens, HEK-293T; HEK293T cells carrying the ATF4 luciferase reporter, 100 nM thapsigargin (Tg), 3 hours; read-out: ATF4 inhbition IC50
Description: The ATF4 reporter was prepared by fusing the human full length 5′UTR of ATF4 (NCBI Accession No. BC022088.2) upstream of the firefly luciferase coding sequence lacking the initiator methionine. The fused sequence was cloned into pLenti-EF1a-C-Myc-DDK-IRES-Puro cloning vector (Origen # PS 100085) using standard methods. Virus production was carried out by using Lenti-X™ Packaging Single Shots Protocol (Clonetech #631276). Viral particles were used to transduce HEK293T cells (ATCC # CRL-3216, ATCC Manassas, Va.), which were subsequently selected with puromycin to generate stable cell line. Cells were maintained at 37° C. and 5% CO2 in DMEM-F12 (Hyclone # SH30023.02) supplemented with 10% heat-inactivated fetal bovine serum (Gibco #16000-044), 2 mM L-glutamine (Gibco #25030-081), 100 U/ml penicillin, and 100 μg/ml streptomycin (Gibco #15140-122).
HEK293T cells carrying the ATF4 luciferase reporter were plated on 96-well plates (Nunc) at 10,000 cells per well. Cells were treated two days after seeding with 100 nM thapsigargin (Tg) (Sigma-Aldrich # T9033) in the presence of different concentrations of selected compounds ranging from 1 nM to 10 μM. Cells without treatment or cells treated with Tg alone were used as controls. Assay plates containing cells were incubated for 3 hours at 37° C.
Luciferase reactions were performed using Luciferase Assay System (Promega # E1501) as specified by the manufacturer. Luminescence was read with an integration time of 1 s and a gain of 110 using a Cytation-5 multi-mode microplate reader (BioTek). Relative luminescence units were normalized to Tg treatment (0% inhibition) and untreated cells (100% inhibition) and the percentage of ATF4 inhibition was calculated.
Accordingly, inhibition of ATF4 expression as a result of the test compound indicates suppression of the ISR pathway.

Row | Compound | activity at 1 µM [1] | pIC50 (ATF4) | % Recovery of protein synthesis (1 μM test compound) [1]
1 | O=C(COc1ccc(Cl)c(F)c1)N[C@H]1CC[C@H](NC(=O)COc2ccc(Cl)c(F)c2)C1 [Compound 1, N,N′-((1S,3S)-cyclopentane-1,3-diyl)bis(2-(4-chloro-3-fluorophenoxy)acetamide)] | 46.9% | 6.07 | –
2 | O=C(COc1ccc(Cl)c(F)c1)N[C@H]1CC[C@@H](NCC(O)COc2ccc(Cl)c(F)c2)C1 (stereo partly drawn) [Compound 2, 2-(4-chloro-3-fluorophenoxy)-N-((1S,3R)-3-((3-(4-chloro-3-fluorophenoxy)-2-hydroxypropyl)amino)cyclopentyl)acetamide] | 84.7% | < 6.00 | 28.2%
3 | O=C(N[C@H]1CC[C@@H](NCC(O)COc2ccc(Cl)c(F)c2)C1)c1ccc2cc(Cl)ccc2n1 (stereo partly drawn) [Compound 3, 6-chloro-N-((1S,3R)-3-((3-(4-chloro-3-fluorophenoxy)-2-hydroxypropyl)amino)cyclopentyl)quinoline-2-carboxamide] | 176% | 6.60 | 286%
4 | O=C(COc1ccc(Cl)c(F)c1)NCC1CCN(C(=O)COc2ccc(Cl)c(F)c2)C1 (stereo not shown) [Compound 4, 2-(4-chloro-3-fluorophenoxy)-N-((1-(2-(4-chloro-3-fluorophenoxy)acetyl)pyrrolidin-3-yl)methyl)acetamide] | 76.1% | < 7.00 | –
5 | O=C(COc1ccc(Cl)c(F)c1)NCC1CCN(C(=O)c2ccc3cc(Cl)ccc3n2)C1 (stereo not shown) [Compound 5, 2-(4-chloro-3-fluorophenoxy)-N-((1-(6-chloroquinoline-2-carbonyl)pyrrolidin-3-yl)methyl)acetamide] | 94.2% | < 7.00 | 0.00%
6 | O=C(COc1ccc(Cl)c(F)c1)NCC1CCN(C(=O)c2cc3cc(Cl)ccc3o2)C1 (stereo not shown) [Compound 6, 2-(4-chloro-3-fluorophenoxy)-N-((1-(5-chlorobenzofuran-2-carbonyl)pyrrolidin-3-yl)methyl)acetamide] | 81.2% | < 7.00 | 0.00%
7 | O=C(COc1ccc(Cl)c(F)c1)NCC1CCN(CC(O)COc2ccc(Cl)c(F)c2)C1 (stereo not shown) [Compound 7, 2-(4-chloro-3-fluorophenoxy)-N-((1-(3-(4-chloro-3-fluorophenoxy)-2-hydroxypropyl)pyrrolidin-3-yl)methyl)acetamide] | 122% | < 7.00 | –
8 | O=C(NCC1CCN(CC(O)COc2ccc(Cl)c(F)c2)C1)c1cc2cc(Cl)ccc2o1 (stereo not shown) [Compound 8, 5-chloro-N-((1-(3-(4-chloro-3-fluorophenoxy)-2-hydroxypropyl)pyrrolidin-3-yl)methyl)benzofuran-2-carboxamide] | 107% | < 6.00 | 31.57%
9 | O=C(COc1ccc(Cl)c(F)c1)NCC1CCN(NC(=O)c2cc3cc(Cl)ccc3o2)C1 (stereo not shown) [Compound 12, 5-chloro-N-(3-((2-(4-chloro-3-fluorophenoxy)acetamido)methyl)pyrrolidin-1-yl)benzofuran-2-carboxamide] | 97.7% | 8.45 | 13%
10 | O=C(N[C@H]1CC[C@H](NCC(O)COc2ccc(Cl)c(F)c2)C1)c1ccc2cc(Cl)ccc2n1 (stereo partly drawn) [Compound 13, 6-chloro-N-((1S,3S)-3-((3-(4-chloro-3-fluorophenoxy)-2-hydroxypropyl)amino)cyclopentyl)quinoline-2-carboxamide] | 288% | < 7.00 | 161.6%
11 | O=C(COc1ccc(Cl)c(F)c1)N[C@H]1CC[C@H](NC(=O)c2cc3cc(Cl)ccc3o2)C1 [Compound 14, 5-chloro-N-((1S,3S)-3-(2-(4-chloro-3-fluorophenoxy)acetamido)cyclopentyl)benzofuran-2-carboxamide] | 65.9% | 6.66 | –
12 | O=C(COc1ccc(Cl)c(F)c1)N[C@@H]1CC[C@H](NC(=O)COc2ccc(Cl)c(F)c2)C1 [Compound 15, N,N′-((1R,3S)-cyclopentane-1,3-diyl)bis(2-(4-chloro-3-fluorophenoxy)acetamide)] | 110% | < 7.00 | –
13 | O=C(COc1ccc(Cl)c(F)c1)N[C@H]1CC[C@H](NC(=O)c2ccc3cc(Cl)ccc3n2)C1 [Compound 16, 6-chloro-N-((1S,3S)-3-(2-(4-chloro-3-fluorophenoxy)acetamido)cyclopentyl)quinoline-2-carboxamide] | 95.4% | 6.87 | –
14 | O=C(COc1ccc(Cl)c(F)c1)N[C@@H]1CC[C@H](NC(=O)c2cc3cc(Cl)ccc3o2)C1 [Compound 17, 5-chloro-N-((1S,3R)-3-(2-(4-chloro-3-fluorophenoxy)acetamido)cyclopentyl)benzofuran-2-carboxamide] | 78.4% | 6.99 | 22%
15 | O=C(N[C@H]1CC[C@H](NCC(O)COc2ccc(Cl)c(F)c2)C1)c1cc2cc(Cl)ccc2o1 (stereo partly drawn) [Compound 18, 5-chloro-N-((1S,3S)-3-((3-(4-chloro-3-fluorophenoxy)-2-hydroxypropyl)amino)cyclopentyl)benzofuran-2-carboxamide] | 158% | 6.75 | –
16 | O=C(COc1ccc(Cl)c(F)c1)N[C@@H]1CC[C@H](NC(=O)c2ccc3cc(Cl)ccc3n2)C1 [Compound 19, 6-chloro-N-((1S,3R)-3-(2-(4-chloro-3-fluorophenoxy)acetamido)cyclopentyl)quinoline-2-carboxamide] | 76.1% | < 7.00 | –
17 | O=C(COc1ccc(Cl)c(F)c1)N[C@H]1CC[C@H](NCC(O)COc2ccc(Cl)c(F)c2)C1 (stereo partly drawn) [Compound 20, 2-(4-chloro-3-fluorophenoxy)-N-((1S,3S)-3-((3-(4-chloro-3-fluorophenoxy)-2-hydroxypropyl)amino)cyclopentyl)acetamide] | 123% | < 7.00 | 52.5%
18 | O=C(N[C@H]1CC[C@@H](NCC(O)COc2ccc(Cl)c(F)c2)C1)c1cc2cc(Cl)ccc2o1 (stereo partly drawn) [Compound 21, 5-chloro-N-((1S,3R)-3-((3-(4-chloro-3-fluorophenoxy)-2-hydroxypropyl)amino)cyclopentyl)benzofuran-2-carboxamide] | 141% | < 6.00 | 54.6%
19 | O=C(NCC1CCC(NCC(O)COc2ccc(Cl)c(F)c2)C1)c1cc2cc(Cl)ccc2o1 (stereo not shown) [Compound 33, 5-chloro-N-((3-((3-(4-chloro-3-fluorophenoxy)-2-hydroxypropyl)amino)cyclopentyl)methyl)benzofuran-2-carboxamide] | 147% | < 6.00 | 101.1%
20 | O=C(NCC1CCC(NCC(O)COc2ccc(Cl)c(F)c2)C1)c1ccc2cc(Cl)ccc2n1 (stereo not shown) [Compound 34, 6-chloro-N-((3-((3-(4-chloro-3-fluorophenoxy)-2-hydroxypropyl)amino)cyclopentyl)methyl)quinoline-2-carboxamide] | 166% | < 6.00 | 122.6%

From patent US20200270232A1, “INHIBITORS OF INTEGRATED STRESS RESPONSE PATHWAY” (Praxis Biotech LLC, priority 2019, published 2020)
